Results reported in patent publication US6461997B1, “Triazole sulfones having herbicidal activity” (Monsanto Technology LLC, priority 1999, dated 2002).

Experiments:
[1] = tested on: LAMPU (purple deadnettle); experiment: Pre-plant incorporated (PPI) herbicidal activity, cool season; assay type: in vivo, Lamium purpureum; details: for Percent inhibition LAMPU: weed, PPI application
Method: (§1) In another set of tests, the pre-plant incorporated (PPI) activity of compounds of this invention was evaluated on the same species as for the pre-emergence tests described above. In the PPI tests the following procedure, designed to simulate PPI application, was used.
(§2) A pre-prepared topsoil mixture (described above) was placed in a pot and compacted to a depth of 1.0 to 1.25 cm from the top of the pot. Seeds of each of several monocotyledonous and dicotyledonous annual plant species were placed on top of the soil. A sufficient quantity of soil to cover the seeds and level fill the pot was weighed into an open container. A known amount of the test compound was dissolved or suspended in an organic solvent and applied by spraying to this cover soil. The cover soil was thoroughly mixed to distribute the test compound throughout the cover soil, and was then applied as a cover layer over the seeds. Untreated soil was used as a cover layer for control pots. After treatment the plants were placed in a greenhouse where they received 0.64 cm of overhead irrigation. All subsequent watering consisted of a light overhead mist and/or subirrigation as needed for germination and growth. Tables 9 and 10 below relate to warm season plant species which were placed after pre-emergence treatment in a greenhouse with a 30/21° C. day/night temperature regime. Tables 11 and 12 below relates to cool season plant species placed after pre-emergence treatment in a greenhouse or growth chamber with an 18/13° C. day/night temperature regime. Only the compounds of Examples 1, 6, 8, 11, 13 and 15-20 were included in PPI tests.
(§3) Approximately 14 days after planting and treating, the plants were observed and herbicidal efficacy recorded as percent inhibition by comparison with untreated plants.

LOLMG (annual ryegrass) = experiment: Pre-emergence herbicidal activity, cool season; assay type: in vivo, Lolium multiflorum; details: GR80 = lowest tested rate (300, 100, 30, 10 g/ha) with 80% or greater inhibition; approx. 14 days after treating; 18/13° C.
Summary of the method: (§4)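 Seeds sown in sterilised fertilised topsoil received surface-applied compound in 50:50 acetone/water, typically at 300, 100, 30 and 10 g/ha, then greenhouse-grown at 30/21° C (warm-season species) or 18/13° C (cool-season species). Percent inhibition versus untreated plants was scored at about 14 days, giving GR80; an asterisk marks activity short of 80% at the top rate.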

KCHSC (kochia) = experiment: Pre-plant incorporated (PPI) herbicidal activity, cool season; assay type: in vivo, Kochia scoparia; details: pre-plant incorporated; lowest tested rate with 80% or greater inhibition; about 14 days
Method: as §1, §2, §3

SETVI (green foxtail) = experiment: as above; assay type: in vivo, Setaria viridis; details: for Percent inhibition SETVI: weed, PPI application
Method: as §1, §2, §3

AMARE (redroot pigweed) = experiment: Pre-emergence herbicidal activity, warm season; assay type: in vivo, Amaranthus retroflexus; details: GR80 = lowest tested rate (300, 100, 30, 10 g/ha) with 80% or greater inhibition; approx. 14 days after treating; 30/21° C.
Summary of the method: as §4

DATST (jimsonweed) = experiment: Pre-emergence herbicidal activity, warm season; assay type: in vivo, Datura stramonium; details: GR80 = lowest tested rate (300, 100, 30, 10 g/ha) with 80% or greater inhibition; approx. 14 days after treating; 30/21° C.
Summary of the method: as §4

[2] = tested on: VERPE (creeping speedwell); experiment: Pre-plant incorporated (PPI) herbicidal activity, cool season; assay type: in vivo, Veronica persicaria; details: for Percent inhibition VERPE: weed, PPI application
Method: as §1, §2, §3

ABUTH (velvetleaf) [3] = experiment: Pre-emergence herbicidal activity, warm season; assay type: in vivo, Abutilon theophrasti; details: GR80 = lowest tested rate (300, 100, 30, 10 g/ha) with 80% or greater inhibition; approx. 14 days after treating; 30/21° C.
Summary of the method: as §4

[4] = tested on: AGSST (creeping bentgrass); experiment: Pre-emergence herbicidal activity, cool season; assay type: in vivo, Agrostis stolonifera; details: GR80 = lowest tested rate (300, 100, 30, 10 g/ha) with 80% or greater inhibition; approx. 14 days after treating; 18/13° C.
Summary of the method: as §4

[5] = tested on: GALAP (catchweed bedstraw); experiment: Pre-plant incorporated (PPI) herbicidal activity, cool season; assay type: in vivo, Galium aparine; details: for Percent inhibition GALAP: weed, PPI application
Method: as §1, §2, §3

[6] = tested on: CIRAR (canada thistle (seedling)); experiment: Pre-plant incorporated (PPI) herbicidal activity, warm season; assay type: in vivo, Cirsium arvense; details: GR80 = lowest tested rate with 80% or greater inhibition, approx. 14 days after treating, 30/21° C.
Method: as §1, §2, §3

ABUTH (velvetleaf) [7] = experiment: as above; assay type: in vivo, Abutilon theophrasti; details: for Percent inhibition ABUTH: PPI application
Method: as §1, §2, §3

[8] = pre-plant incorporated, lowest tested rate with 80% or greater inhibition, about 14 days

## CCN(CC)C(=O)n1cnc(S(=O)(=O)C(F)(F)C(F)F)n1 [Example 16]
[1]; [8]
  PPI activity GR80, LAMPU: 10 g/ha
[1]; 10 g/ha
  Percent inhibition LAMPU: 50%
[1]; 30 g/ha
  Percent inhibition LAMPU: 80%
[1]; 100 g/ha
  Percent inhibition LAMPU: 90%
[1]; 300 g/ha
  Percent inhibition LAMPU: 80%
[1]; 900 g/ha
  Percent inhibition LAMPU: 90%
LOLMG (annual ryegrass)
  Pre-emergence activity (GR80) LOLMG: 300 g/ha
KCHSC (kochia)
  PPI activity GR80, KCHSC: 30 g/ha
SETVI (green foxtail); [8]
  PPI activity GR80, SETVI: 10 g/ha
SETVI (green foxtail); 10 g/ha
  Percent inhibition SETVI: 100%
SETVI (green foxtail); 30 g/ha
  Percent inhibition SETVI: 80%
SETVI (green foxtail); 100 g/ha
  Percent inhibition SETVI: 95%
SETVI (green foxtail); 300 g/ha
  Percent inhibition SETVI: 100%
SETVI (green foxtail); 900 g/ha
  Percent inhibition SETVI: 100%
AMARE (redroot pigweed)
  Pre-emergence activity (GR80) AMARE: 300 g/ha
DATST (jimsonweed)
  Pre-emergence activity (GR80) DATST: 300 g/ha
[2]; [8]
  PPI activity GR80, VERPE: 100 g/ha
[2]; 10 g/ha
  Percent inhibition VERPE: 100%
[2]; 30 g/ha
  Percent inhibition VERPE: 95%
[2]; 100 g/ha
  Percent inhibition VERPE: 100%
[2]; 300 g/ha
  Percent inhibition VERPE: 100%
[2]; 900 g/ha
  Percent inhibition VERPE: 100%
ABUTH (velvetleaf) [3]
  Pre-emergence activity (GR80) ABUTH: 300 g/ha
[4]
  Pre-emergence activity (GR80) AGSST: 30 g/ha
[5]; [8]
  PPI activity GR80, GALAP: 100 g/ha
[5]; 10 g/ha
  Percent inhibition GALAP: 0%
[5]; 30 g/ha
  Percent inhibition GALAP: 20%
[5]; 100 g/ha
  Percent inhibition GALAP: 100%
[5]; 300 g/ha
  Percent inhibition GALAP: 100%
[5]; 900 g/ha
  Percent inhibition GALAP: 100%
[6]
  PPI activity (GR80) CIRAR: 30 g/ha
ABUTH (velvetleaf) [7]; 10 g/ha
  Percent inhibition ABUTH: 0%
ABUTH (velvetleaf) [7]; 30 g/ha
  Percent inhibition ABUTH: 0%
ABUTH (velvetleaf) [7]; 100 g/ha
  Percent inhibition ABUTH: 0%
ABUTH (velvetleaf) [7]; 300 g/ha
  Percent inhibition ABUTH: 30%
ABUTH (velvetleaf) [7]; 900 g/ha
  Percent inhibition ABUTH: 95%
ABUTH (velvetleaf) [7]; pre-plant incorporated, GR80 = lowest tested rate with 80% or greater inhibition, approx. 14 days after treating, 30/21° C.
  PPI activity (GR80) ABUTH: 100 g/ha
